# Experimental data from PubChem BioAssay AID1963828 (Molecular Pharmacology Branch, DTP, NCI, 2024).
# Tested on: 991263-137-R1-J2-PDC complex spheroid viability
# Assay: Anticancer human tumor 991263-137-R1-J2-PDC patient-derived colon adenocarcinoma cell line growth inhibition [POLQ]
# Details: for IC50: curve of first compound; for viability, T/C: stronger effect = lower value
# In short: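 Complex spheroid viability model combining PDC tumour cells with endothelial (HUVEC) and MSC stromal cells. Novobiocin, ART-558 or RP6685 were tested singly and in combination with standard and investigational anticancer drugs. Each was titrated in half-log steps from near clinical Cmax, or from 10 microM where Cmax was unknown.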
# [1] = second compound 0.0316 µM, first compound 0.0316 µM
# [2] = second compound 0.0316 µM, first compound 0.1 µM
# [3] = second compound 0.0316 µM, first compound 0.316 µM
# [4] = second compound 0.0316 µM, first compound 1 µM
# [5] = second compound 0.1 µM, first compound 0.0316 µM
# [6] = second compound 0.1 µM, first compound 0.1 µM
# [7] = second compound 0.1 µM, first compound 0.316 µM
# [8] = second compound 0.1 µM, first compound 1 µM
# [9] = second compound 0.316 µM, first compound 0.0316 µM
# [10] = second compound 0.316 µM, first compound 0.1 µM
# [11] = second compound 0.316 µM, first compound 0.316 µM
# [12] = second compound 0.316 µM, first compound 1 µM
# [13] = second compound 1 µM, first compound 0.0316 µM
# [14] = second compound 1 µM, first compound 0.1 µM
# [15] = second compound 1 µM, first compound 0.316 µM
# [16] = second compound 1 µM, first compound 1 µM
# [17] = second compound 3.16 µM, first compound 0.0316 µM
# [18] = second compound 3.16 µM, first compound 0.1 µM
# [19] = second compound 3.16 µM, first compound 0.316 µM
# [20] = second compound 3.16 µM, first compound 1 µM
# [21] = second compound 10 µM, first compound 0.0316 µM
# [22] = second compound 10 µM, first compound 0.1 µM
# [23] = second compound 10 µM, first compound 0.316 µM
# [24] = second compound 10 µM, first compound 1 µM
# 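Also: spheroids exposed to compounds for 7 days before readout.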
# 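For viability, T/C in this document: 100% = DMSO vehicle control viability.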
structure (smiles),measurement,setting,value
CC1COCCN1c1cc(C2(S(C)(=N)=O)CC2)nc(-c2ccnc3[nH]ccc23)n1 (stereo unspecified) + COC1C(OC(N)=O)C(O)C(Oc2ccc3c(O)c(NC(=O)c4ccc(O)c(CC=C(C)C)c4)c(=O)oc3c2C)OC1(C)C,IC50,second compound 0.0316 µM,> 10 µM
same,IC50,second compound 0.1 µM,> 10 µM
same,IC50,second compound 0.316 µM,> 10 µM
same,IC50,second compound 1 µM,> 10 µM
same,IC50,second compound 3.16 µM,> 10 µM
same,IC50,second compound 10 µM,> 10 µM
same,"viability, T/C",[1],99.2%
same,"viability, T/C",[2],84.5%
same,"viability, T/C",[3],104%
same,"viability, T/C",[4],87%
same,"viability, T/C","second compound 0.0316 µM, first compound 3.16 µM",91.5%
same,"viability, T/C","second compound 0.0316 µM, first compound 10 µM",66.1%
same,"viability, T/C",[5],113%
same,"viability, T/C",[6],112%
same,"viability, T/C",[7],101%
same,"viability, T/C",[8],89.2%
same,"viability, T/C","second compound 0.1 µM, first compound 3.16 µM",97.6%
same,"viability, T/C","second compound 0.1 µM, first compound 10 µM",55.4%
same,"viability, T/C",[9],96.3%
same,"viability, T/C",[10],106%
same,"viability, T/C",[11],89.9%
same,"viability, T/C",[12],69.6%
same,"viability, T/C","second compound 0.316 µM, first compound 3.16 µM",104%
same,"viability, T/C","second compound 0.316 µM, first compound 10 µM",83.8%
same,"viability, T/C",[13],106%
same,"viability, T/C",[14],103%
same,"viability, T/C",[15],91.2%
same,"viability, T/C",[16],89.5%
same,"viability, T/C","second compound 1 µM, first compound 3.16 µM",96.5%
same,"viability, T/C","second compound 1 µM, first compound 10 µM",79.9%
same,"viability, T/C",[17],92.8%
same,"viability, T/C",[18],85.9%
same,"viability, T/C",[19],98.3%
same,"viability, T/C",[20],106%
same,"viability, T/C","second compound 3.16 µM, first compound 3.16 µM",103%
same,"viability, T/C","second compound 3.16 µM, first compound 10 µM",84%
same,"viability, T/C",[21],86.8%
same,"viability, T/C",[22],106%
same,"viability, T/C",[23],105%
same,"viability, T/C",[24],96.6%
same,"viability, T/C","second compound 10 µM, first compound 3.16 µM",107%
same,"viability, T/C","second compound 10 µM, first compound 10 µM",70.9%
CC(=O)O[C@H]1C(=O)[C@@]2(C)[C@H]([C@H](OC(=O)c3ccccc3)[C@]3(O)C[C@H](OC(=O)[C@H](O)[C@@H](NC(=O)c4ccccc4)c4ccccc4)C(C)=C1C3(C)C)[C@]1(OC(C)=O)CO[C@@H]1C[C@@H]2O + COC1C(OC(N)=O)C(O)C(Oc2ccc3c(O)c(NC(=O)c4ccc(O)c(CC=C(C)C)c4)c(=O)oc3c2C)OC1(C)C,IC50,second compound 0.0316 µM,> 3 µM
same,IC50,second compound 0.1 µM,1.95 µM
same,IC50,second compound 0.316 µM,1.58 µM
same,IC50,second compound 1 µM,1.54 µM
same,IC50,second compound 3.16 µM,1.85 µM
same,IC50,second compound 10 µM,1.7 µM
same,"viability, T/C","second compound 0.0316 µM, first compound 0.00949 µM",90%
same,"viability, T/C","second compound 0.0316 µM, first compound 0.03 µM",100%
same,"viability, T/C","second compound 0.0316 µM, first compound 0.0949 µM",75.2%
same,"viability, T/C","second compound 0.0316 µM, first compound 0.3 µM",54.2%
same,"viability, T/C","second compound 0.0316 µM, first compound 0.949 µM",51.6%
same,"viability, T/C","second compound 0.0316 µM, first compound 3 µM",48.9%
same,"viability, T/C","second compound 0.1 µM, first compound 0.00949 µM",100%
same,"viability, T/C","second compound 0.1 µM, first compound 0.03 µM",90.3%
same,"viability, T/C","second compound 0.1 µM, first compound 0.0949 µM",78.7%
same,"viability, T/C","second compound 0.1 µM, first compound 0.3 µM",83%
same,"viability, T/C","second compound 0.1 µM, first compound 0.949 µM",58.8%
same,"viability, T/C","second compound 0.1 µM, first compound 3 µM",43%
same,"viability, T/C","second compound 0.316 µM, first compound 0.00949 µM",103%
same,"viability, T/C","second compound 0.316 µM, first compound 0.03 µM",97%
same,"viability, T/C","second compound 0.316 µM, first compound 0.0949 µM",75.5%
same,"viability, T/C","second compound 0.316 µM, first compound 0.3 µM",74.3%
same,"viability, T/C","second compound 0.316 µM, first compound 0.949 µM",50.3%
same,"viability, T/C","second compound 0.316 µM, first compound 3 µM",45.4%
same,"viability, T/C","second compound 1 µM, first compound 0.00949 µM",93.2%
same,"viability, T/C","second compound 1 µM, first compound 0.03 µM",97.5%
same,"viability, T/C","second compound 1 µM, first compound 0.0949 µM",83.8%
same,"viability, T/C","second compound 1 µM, first compound 0.3 µM",74.1%
same,"viability, T/C","second compound 1 µM, first compound 0.949 µM",55.6%
same,"viability, T/C","second compound 1 µM, first compound 3 µM",42.1%
same,"viability, T/C","second compound 3.16 µM, first compound 0.00949 µM",96.2%
same,"viability, T/C","second compound 3.16 µM, first compound 0.03 µM",83.5%
same,"viability, T/C","second compound 3.16 µM, first compound 0.0949 µM",81.4%
same,"viability, T/C","second compound 3.16 µM, first compound 0.3 µM",70.6%
same,"viability, T/C","second compound 3.16 µM, first compound 0.949 µM",54.5%
same,"viability, T/C","second compound 3.16 µM, first compound 3 µM",45.7%
same,"viability, T/C","second compound 10 µM, first compound 0.00949 µM",86.7%
same,"viability, T/C","second compound 10 µM, first compound 0.03 µM",91.2%
same,"viability, T/C","second compound 10 µM, first compound 0.0949 µM",96%
same,"viability, T/C","second compound 10 µM, first compound 0.3 µM",81%
same,"viability, T/C","second compound 10 µM, first compound 0.949 µM",57.1%
same,"viability, T/C","second compound 10 µM, first compound 3 µM",43.4%
CCc1c2c(nc3ccc(O)cc13)-c1cc3c(c(=O)n1C2)COC(=O)[C@]3(O)CC + Nc1ccc(C#CCN(C(=O)Cc2ncc(C(F)(F)F)cc2C(F)(F)F)c2ccc(F)cc2)nn1,IC50,second compound 0.0316 µM,0.081 µM
same,IC50,second compound 0.1 µM,0.0621 µM
same,IC50,second compound 0.316 µM,0.101 µM
same,IC50,second compound 1 µM,0.11 µM
same,IC50,second compound 3.16 µM,0.0909 µM
same,IC50,second compound 10 µM,0.0941 µM
same,"viability, T/C","second compound 0.0316 µM, first compound 0.00316 µM",90.7%
same,"viability, T/C","second compound 0.0316 µM, first compound 0.01 µM",76.1%
same,"viability, T/C",[1],51.9%
same,"viability, T/C",[2],51.2%
same,"viability, T/C",[3],42%
same,"viability, T/C",[4],26.2%
same,"viability, T/C","second compound 0.1 µM, first compound 0.00316 µM",95.9%
same,"viability, T/C","second compound 0.1 µM, first compound 0.01 µM",78.6%
same,"viability, T/C",[5],52.9%
same,"viability, T/C",[6],45.3%
same,"viability, T/C",[7],42.8%
same,"viability, T/C",[8],30.2%
same,"viability, T/C","second compound 0.316 µM, first compound 0.00316 µM",102%
same,"viability, T/C","second compound 0.316 µM, first compound 0.01 µM",89.6%
same,"viability, T/C",[9],58%
same,"viability, T/C",[10],52.9%
same,"viability, T/C",[11],39.8%
same,"viability, T/C",[12],25.6%
same,"viability, T/C","second compound 1 µM, first compound 0.00316 µM",100%
same,"viability, T/C","second compound 1 µM, first compound 0.01 µM",81.5%
same,"viability, T/C",[13],56.7%
same,"viability, T/C",[14],55.4%
same,"viability, T/C",[15],42.8%
same,"viability, T/C",[16],28.2%
same,"viability, T/C","second compound 3.16 µM, first compound 0.00316 µM",89.7%
same,"viability, T/C","second compound 3.16 µM, first compound 0.01 µM",72.7%
same,"viability, T/C",[17],59.1%
same,"viability, T/C",[18],48%
same,"viability, T/C",[19],43.6%
same,"viability, T/C",[20],24.3%
same,"viability, T/C","second compound 10 µM, first compound 0.00316 µM",75%
same,"viability, T/C","second compound 10 µM, first compound 0.01 µM",65.1%
same,"viability, T/C",[21],58.3%
same,"viability, T/C",[22],53.3%
same,"viability, T/C",[23],35.7%
same,"viability, T/C",[24],24.5%
